Experimental data: patent US20240342138A1, “MICROTUBULE TARGETING AGENTS” (BPGbio, Inc., priority 2023, published 2024)
Read-outs that look alike come from different tables or passages of the source.

Assays:
[1] = Blood brain barrier permeability (PVDF membrane coated with porcine brain polar lipid extract); assay type: in vitro ADME
Experimental: Preparation of Donor Solution a) 0.2 mM working solution was prepared by diluting 10 mM stock solution with DMSO. b) 10 μM donor solution (5% DMSO) was prepared by diluting 20 μL of working solution with 380 μL PBS. 2) 150 μL of 10 μM donor solutions to each well of the donor plate, whose PVDF membrane was precoated with 5 μL of 1% brain polar lipid extract (Porcine)/dodecane mixture. Duplicates were prepared. 3) 300 μL of PBS was added to each well of the PTFE acceptor plate. 4) The donor plate and acceptor plate were combined together and incubated for 4h at room temperature with shaking at 300 rpm. 5) Preparation of TO sample: 20 μL donor solution was transferred to new well followed by the addition of 250 μL PBS (DF: 13.5), 130 μL ACN (containing internal standard) as TO sample. 6) Preparation of acceptor sample: The plate was removed from incubator. 270 μL solution was transferred from each acceptor well and mixed with 130 μL ACN (containing internal standard) as acceptor sample. 7) Preparation of donor sample: […] was transferred from each donor well and mixed with 250 μL PBS (DF: 13.5), 130 μL ACN (containing internal standard) as donor sample. 8) Acceptor samples and donor samples were all analyzed by LC/MS/MS.

[2] = Biodistribution after oral administration; assay type: in vivo, Sprague-Dawley Rats; conditions: 75 mg/kg oral; for concentration at 8 h / Kp at 8 h / concentration at 0.25 h / Kp at 0.25 h / concentration at 2 h / Kp at 2 h: male, Sprague-Dawley, rat; for concentration at 8 h / concentration at 0.25 h / concentration at 2 h: read-out: Mean plasma/tissue concentration; for Kp at 8 h / Kp at 0.25 h / Kp at 2 h: read-out: Ratio (tissue to plasma)
Experimental: Male Sprague-Dawley Rats (total of 6 animals) 6 to 8 weeks of age (210-227 g) was used in this biodistribution study. Compound 1 was dosed at 75 mg/kg to all animals through oral route of administration at a 10 ml/kg dose volume. Compound 1 formulation was freshly prepared in Tween-80+0.5% methyl cellulose and maintained at room temperature until dosing. Dose was administered in all animals under fasted conditions. […] Heart, lung, liver, kidney, stomach, small intestine, large intestine, skeletal muscle, brain, spleen, pancreas and adipose were harvested while blood was processed to plasma for bioanalytical quantification of Compound 1.
Compound 1 bioanalytical assay was developed and validated using the SCIEX 6500 LC-MS/MS. A mobile phase (isocratic flow) comprised of Acetonitrile and 0.2% formic acid in MilliQ water in a Atlantis dC18-HPLC column (50×4.6 mm, […]), with a flow rate of 0.9 mL/min and a run time of 2.20 min. Mass transition (m/z) of 375.040 and 188.100 was used for detection of Compound 1 at an LLOQ of 2.14 ng/mL.

SMILES: COc1ccccc1-c1nc(CNC(=O)c2ccccc2OC(F)F)n[nH]1 [Compound 1, 2-(difluoromethoxy)-N-[[5-(2-methoxyphenyl)-1H-1,2,4-triazol-3-yl]methyl]benzamide]
- Permeability ([1]; 10 μM, 4 h): highly permeable and High
- Papp at 4 h, 10 μM ([1]; PAMPA, read-out: Mean Pe): 6.76 ×10⁻⁶ cm/s
- recovery at 4 h, 10 μM ([1]; pig, not told): 85.8%
- Tissue distribution [2]: Drug distribution was revealed across all tissues
- Blood brain barrier penetration ([2]; 8 hours): brain barrier penetration observed
- Percentage (plasma to tissue) ([2]; Adipose tissue, 0.25 hours): 1.94%
- Percentage (plasma to tissue) ([2]; Adipose tissue, 2 hours): 2.36%
- Percentage (plasma to tissue) ([2]; Adipose tissue, 8 hours): 3.06%
- Percentage (plasma to tissue) ([2]; Brain, 0.25 hours): 0.79%
- Percentage (plasma to tissue) ([2]; Brain, 2 hours): 0.57%
- Percentage (plasma to tissue) ([2]; Brain, 8 hours): 2.18%
- Percentage (plasma to tissue) ([2]; Heart, 0.25 hours): 1.89%
- Percentage (plasma to tissue) ([2]; Heart, 2 hours): 2.59%
- Percentage (plasma to tissue) ([2]; Heart, 8 hours): 4.19%
- Percentage (plasma to tissue) ([2]; Kidney, 0.25 hours): 2.99%
- Percentage (plasma to tissue) ([2]; Kidney, 2 hours): 2.92%
- Percentage (plasma to tissue) ([2]; Kidney, 8 hours): 4.16%
- Percentage (plasma to tissue) ([2]; Liver, 0.25 hours): 12.5%
- Percentage (plasma to tissue) ([2]; Liver, 2 hours): 10.6%
- Percentage (plasma to tissue) ([2]; Liver, 8 hours): 16.5%
- Percentage (plasma to tissue) ([2]; Lungs, 0.25 hours): 3.91%
- Percentage (plasma to tissue) ([2]; Lungs, 2 hours): 2.93%
- Percentage (plasma to tissue) ([2]; Lungs, 8 hours): 5.06%
- Percentage (plasma to tissue) ([2]; Pancreas, 0.25 hours): 3.42%
- Percentage (plasma to tissue) ([2]; Pancreas, 2 hours): 3.18%
- Percentage (plasma to tissue) ([2]; Pancreas, 8 hours): 7.60%
- Percentage (plasma to tissue) ([2]; Plasma, 0.25 hours): 3.59%
- Percentage (plasma to tissue) ([2]; Plasma, 2 hours): 2.29%
- Percentage (plasma to tissue) ([2]; Plasma, 8 hours): 5.37%
- Percentage (plasma to tissue) ([2]; Skeletal Muscle, 0.25 hours): 0.77%
- Percentage (plasma to tissue) ([2]; Skeletal Muscle, 2 hours): 0.85%
- Percentage (plasma to tissue) ([2]; Skeletal Muscle, 8 hours): 20.5%
- Percentage (plasma to tissue) ([2]; Small intestine, 0.25 hours): 21.9%
- Percentage (plasma to tissue) ([2]; Small intestine, 2 hours): 21.9%
- Percentage (plasma to tissue) ([2]; Small intestine, 8 hours): 4.82%
- Percentage (plasma to tissue) ([2]; Spleen, 0.25 hours): 4.26%
- Percentage (plasma to tissue) ([2]; Spleen, 2 hours): 1.68%
- Percentage (plasma to tissue) ([2]; Spleen, 8 hours): 7.84%
- Percentage (plasma to tissue) ([2]; Stomach, 0.25 hours): 42.7%
- Percentage (plasma to tissue) ([2]; Stomach, 2 hours): 48.1%
- Percentage (plasma to tissue) ([2]; Stomach, 8 hours): 18.8%
- concentration at 8 h ([2]; lung, Lungs, 8 hours): 78.2 ng/g
- Kp at 8 h ([2]; lung, Lungs, 8 hours): 0.94
- concentration at 0.25 h ([2]; Adipose tissue, 0.25 hours): 1530 ng/g
- Kp at 0.25 h ([2]; Adipose tissue, 0.25 hours): 0.54
- concentration at 2 h ([2]; Adipose tissue, 2 hours): 2030 ng/g
- Kp at 2 h ([2]; Adipose tissue, 2 hours): 1.03
- concentration at 8 h ([2]; Adipose tissue, 8 hours): 47.2 ng/g
- Kp at 8 h ([2]; Adipose tissue, 8 hours): 0.57
- concentration at 0.25 h ([2]; Brain, 0.25 hours): 624 ng/g
- Kp at 0.25 h ([2]; Brain, 0.25 hours): 0.22
- concentration at 2 h ([2]; Brain, 2 hours): 494 ng/g
- Kp at 2 h ([2]; Brain, 2 hours): 0.25
- concentration at 8 h ([2]; Brain, 8 hours): 33.6 ng/g
- Kp at 8 h ([2]; Brain, 8 hours): 0.4
- concentration at 0.25 h ([2]; Heart, 0.25 hours): 1490 ng/g
- Kp at 0.25 h ([2]; Heart, 0.25 hours): 0.53
- concentration at 2 h ([2]; Heart, 2 hours): 2230 ng/g
- Kp at 2 h ([2]; Heart, 2 hours): 1.13
- concentration at 8 h ([2]; Heart, 8 hours): 64.8 ng/g
- Kp at 8 h ([2]; Heart, 8 hours): 0.78
- concentration at 0.25 h ([2]; Kidney, 0.25 hours): 2360 ng/g
- Kp at 0.25 h ([2]; Kidney, 0.25 hours): 0.83
- concentration at 2 h ([2]; Kidney, 2 hours): 2520 ng/g
- Kp at 2 h ([2]; Kidney, 2 hours): 1.27
- concentration at 8 h ([2]; Kidney, 8 hours): 64.2 ng/g
- Kp at 8 h ([2]; Kidney, 8 hours): 0.77
- concentration at 0.25 h ([2]; Liver, 0.25 hours): 9890 ng/g
- Kp at 0.25 h ([2]; Liver, 0.25 hours): 3.49
- concentration at 2 h ([2]; Liver, 2 hours): 9140 ng/g
- Kp at 2 h ([2]; Liver, 2 hours): 4.63
- concentration at 8 h ([2]; Liver, 8 hours): 255 ng/g
- Kp at 8 h ([2]; Liver, 8 hours): 3.06
- concentration at 0.25 h ([2]; Lungs, 0.25 hours): 3090 ng/g
- Kp at 0.25 h ([2]; Lungs, 0.25 hours): 1.09
- concentration at 2 h ([2]; Lungs, 2 hours): 2520 ng/g
- Kp at 2 h ([2]; Lungs, 2 hours): 1.28
- concentration at 0.25 h ([2]; Pancreas, 0.25 hours): 2700 ng/g
- Kp at 0.25 h ([2]; Pancreas, 0.25 hours): 0.95
- concentration at 2 h ([2]; Pancreas, 2 hours): 2740 ng/g
- Kp at 2 h ([2]; Pancreas, 2 hours): 1.39
- concentration at 8 h ([2]; Pancreas, 8 hours): 117 ng/g
- Kp at 8 h ([2]; Pancreas, 8 hours): 1.41
- concentration at 0.25 h ([2]; Plasma, 0.25 hours): 2830 ng/mL
- concentration at 2 h ([2]; Plasma, 2 hours): 1980 ng/mL
- concentration at 8 h ([2]; Plasma, 8 hours): 83.1 ng/mL
- concentration at 0.25 h ([2]; Skeletal Muscle, 0.25 hours): 607 ng/g
- Kp at 0.25 h ([2]; Skeletal Muscle, 0.25 hours): 0.21
- concentration at 2 h ([2]; Skeletal Muscle, 2 hours): 734 ng/g
- Kp at 2 h ([2]; Skeletal Muscle, 2 hours): 0.37
- concentration at 8 h ([2]; Skeletal Muscle, 8 hours): 316 ng/g
- Kp at 8 h ([2]; Skeletal Muscle, 8 hours): 3.81
- concentration at 0.25 h ([2]; Small intestine, 0.25 hours): 16700 ng/g
- Kp at 0.25 h ([2]; Small intestine, 0.25 hours): 5.9
- concentration at 2 h ([2]; Small intestine, 2 hours): 18800 ng/g
- Kp at 2 h ([2]; Small intestine, 2 hours): 9.53
- concentration at 8 h ([2]; Small intestine, 8 hours): 74.4 ng/g
- Kp at 8 h ([2]; Small intestine, 8 hours): 0.9
- concentration at 0.25 h ([2]; Spleen, 0.25 hours): 3360 ng/g
- Kp at 0.25 h ([2]; Spleen, 0.25 hours): 1.19
- concentration at 2 h ([2]; Spleen, 2 hours): 1450 ng/g
- Kp at 2 h ([2]; Spleen, 2 hours): 0.73
- concentration at 8 h ([2]; Spleen, 8 hours): 121 ng/g
- Kp at 8 h ([2]; Spleen, 8 hours): 1.46
- concentration at 0.25 h ([2]; Stomach, 0.25 hours): 33700 ng/g
- Kp at 0.25 h ([2]; Stomach, 0.25 hours): 11.9
- concentration at 2 h ([2]; Stomach, 2 hours): 41500 ng/g
- Kp at 2 h ([2]; Stomach, 2 hours): 21
- concentration at 8 h ([2]; Stomach, 8 hours): 290 ng/g
- Kp at 8 h ([2]; Stomach, 8 hours): 3.5
